Active and inactive are the calls of the source. The rule behind the calls is not given here.
Assays:
Huh-7 = test: Activation of glucose transporter in human Huh-7 cells assessed as increase in glucose uptake at 800 ug/ml preincubated for 30 mins followed by […] addition and measured after 45 mins by fluorescence assay; format: cell-based; conditions: dose 800.0 µg/ml, time 75.0 min
[1] = Activation of glucose transporter in human Huh-7 cells assessed as increase in glucose uptake preincubated for 30 mins followed by 2-NDBG addition and measured after 45 mins by fluorescence assay

O=c1cc(-c2ccc(O)c(O)c2)oc2c([C@@H]3O[C@H](CO)[C@@H](O)[C@H](O)[C@H]3O[C@@H]3O[C@H](CO)[C@@H](O)[C@@H]3O)c(O)cc(O)c12
Activity (Huh-7): inactive

O=C1OC[C@H]2O[C@@](CO)(O[C@H]3O[C@H](COC(=O)[C@H]4[C@H]1[C@@H](c1ccc(O)cc1)[C@@H]4c1ccc(O)cc1)[C@@H](O)[C@H](O)[C@H]3O)[C@@H](O)[C@@H]2O
Activity (Huh-7): inactive

O=C(/C=C/c1ccc(O)cc1)O[C@@H]1O[C@H](CO)[C@@H](O)[C@H](O)[C@H]1O
EC50 [1]: 7.7 µM
fold change (FC) (Huh-7; filed as activator): 2

O=C(O)/C=C\c1ccc(O[C@@H]2O[C@H](CO)[C@@H](O)[C@H](O)[C@H]2O)cc1
Activity (Huh-7): inactive

CC(/C=C/C(=O)O)=C\C=C\C[C@H](O[C@@H]1O[C@H](CO)[C@@H](O)[C@H](O)[C@H]1O)[C@H](C)CC(=O)O
Activity (Huh-7): inactive

O=c1cc(-c2ccc(O)cc2)oc2c([C@@H]3O[C@H](CO)[C@@H](O)[C@H](O)[C@H]3O[C@@H]3O[C@H](CO)[C@@H](O)[C@@H]3O)c(O)cc(O)c12
Activity (Huh-7): inactive

O=c1cc(-c2ccc(O)cc2)oc2cc(O)c([C@@H]3O[C@H](CO)[C@@H](O)[C@H](O)[C@H]3O[C@@H]3O[C@H](CO)[C@@H](O)[C@H](O)[C@H]3O)c(O)c12
Activity (Huh-7): inactive
